Literature values as cited in publication PMC4207555 (Drug Design, Development and Therapy, 2014).
Read-outs that look alike come from different tables or passages of the source. Values belong to the molecule of their own block, whether it stands above or below them.

Tests used:
[1] = test system: mCRPC that had progressed on previous docetaxel-based therapy; conditions: for median overall survival / median progression-free survival: plus prednisone/prednisolone
HID28 = conditions: for percentage tumor volume change (treated/control mean tumor volume): Day 35
[2] = rats, ref Sanofi, data on file; for HNLD as single dose: 2013
microtubules = conditions: read-out: stabilization of microtubules against cold-induced depolymerization (concentration producing 50% cell killing)
[3] = Phase III clinical studies in a number of tumor types
[4] = test system: P-glycoprotein-expressing cell lines bearing acquired resistance; conditions: range across P-glycoprotein-expressing cell lines
[5] = humans
[6] = male or female rats; ref Sanofi, data on file, 2010
[7] = not given; remark: listed apart in the source
[8] = single-dose studies in mice, rats, and dogs; ref Sanofi, data on file, 2013
[9] = ref Sanofi, data on file, 2010
plasma protein [10] = conditions: mice; ref Sanofi, data on file, 2010
Prostate DU 145 = conditions: DU145 xenograft
B16/TXT melanoma = conditions: B16/TXT acquired-resistance model, no P-glycoprotein overexpression
[11] = rats, ref Sanofi, data on file, 2010
[12] = not given; remark: listed apart in the source
[13] = test system: bacterial reverse mutation; conditions: ref Sanofi, data on file, 2010
[14] = ref Sanofi, data on file, 2010; remark: listed apart in the source
[15] = test system: cell lines with resistance mechanisms other than P-glycoprotein overexpression
plasma protein [16] = conditions: dogs; ref Sanofi, data on file, 2010
[17] = dogs, ref Sanofi, data on file, 2010
[18] = not given; remark: listed apart in the source
plasma protein [19] = conditions: rabbits; ref Sanofi, data on file, 2010
[20] = mice
Breast UISO BCA-1 = conditions: UISO BCA-1, dose level below HNTD (9.3 mg/kg per injection)
Breast Calc18/TXT = conditions: P-glycoprotein-overexpressing Calc18/TXT
plasma protein [21] = conditions: rats; ref Sanofi, data on file, 2010
[22] = mice, ref Sanofi, data on file; for NOEL for central neurotoxicity / NOEL for peripheral neurotoxicity: 2010
[23] = in situ brain perfusion, wild-type mice; ref 47 (unpublished data)
[24] = after IV administration; ref Sanofi, data on file, 2010
[25] = test system: pediatric sarcoma xenograft; conditions: five of six models
[26] = dogs; ref Sanofi, data on file, 2013
[27] = dogs
[28] = test system: human intracranial glioblastoma xenograft; conditions: two models, respective HNTDs
[29] = not given; remark: listed apart in the source
plasma protein [30] = conditions: humans; ref Sanofi, data on file, 2010
bone marrow = conditions: ref Sanofi, data on file, 2010
[31] = 0–48 hours, mice bearing subcutaneous MA16/C

Compound: O=C1c2c(O)ccc(O)c2C(=O)c2c(NCCNCCO)ccc(NCCNCCO)c21 [mitoxantrone, reference compound]
prostate-specific antigen response [1]: 17.8%
rate of objective tumor response [1]: 4.4%
median overall survival [1]: 12.7 months
median progression-free survival [1]: 1.4 months

Compound: CC(=O)O[C@H]1CC[C@@]2(C)C(=CC[C@@H]3[C@@H]2CC[C@]2(C)C(c4cccnc4)=CC[C@@H]32)C1 [abiraterone acetate, reference compound]
antitumor activity (HID28; HID28, 50 mg/kg orally daily for 21 days): No antitumor activity

logP: 3.2
HNLD as single dose [2]: 10 mg/kg
administered dose of 14C excreted in the feces ([5]; over 7 days): 80%
administered dose of 14C recovered in the urine ([5]; over 7 days): approximately 5%
Compound: CC(=O)O[C@@]12CO[C@@H]1C[C@H](O)[C@@]1(C)C(=O)[C@H](O)C3=C(C)[C@@H](OC(=O)[C@H](O)[C@@H](NC(=O)OC(C)(C)C)c4ccccc4)C[C@@](O)([C@@H](OC(=O)c4ccccc4)[C@H]21)C3(C)C [Docetaxel, reference compound]
IC50 (microtubules): 100 to 250 nM
incidence of grade 3/4 sensory neuropathy [3]: 0%–7
Resistance factors [4]: 5–59
percentage tumor volume change (treated/control mean tumor volume) (HID28; HID28, 20 mg/kg): 16.7%
lag time to 50% aggregation (reduction in lag time for tubulin assembly) (tubulin): 0 to 0.1 µmol/L

Compound: CO[C@H]1C(=O)[C@]2(C)[C@@H](OC)C[C@H]3OC[C@@]3(OC(C)=O)[C@H]2[C@H](OC(=O)c2ccccc2)[C@]2(O)C[C@H](OC(=O)[C@H](O)[C@@H](NC(=O)OC(C)(C)C)c3ccccc3)C(C)=C1C2(C)C [Cabazitaxel]
mating performance or fertility [6]: did not affect
logP: 3.9
radioactivity excreted via the biliary route, % of the administered dose ([7]; bile-duct-cannulated male rats, within 48 hours): 65%
pathway C (t-butyl-hydroxylation on the lateral chain), share of the dose excreted ([7]; male and female rats): 49%–55
grade ≥3 anemia, patients [1]: 11%
grade ≥3 diarrhea [1]: 6%
grade ≥3 leukopenia, patients [1]: 68%
grade ≥3 neutropenia, patients [1]: 82%
patients who died within 30 days of the last infusion [1]: 5%
patients with dose reduction [1]: 12%
patients with treatment delay [1]: 28%
peripheral neuropathy, patients [1]: 14%
prostate-specific antigen response [1]: 39.2%
rate of objective tumor response [1]: 14.4%
median overall survival [1]: 15.1 months
median progression-free survival [1]: 2.8 months
grade 3 peripheral neuropathy, patients ([1]; three patients): 1%
hazard ratio, death ([1]; versus mitoxantrone): 0.70
hazard ratio, progression-free survival ([1]; versus mitoxantrone): 0.74
reduction in the risk of death ([1]; versus mitoxantrone): 30%
NOEL for central neurotoxicity ([2]; single-dose, 1 min infusion, 2010): >10 mg/kg/day
NOEL for central neurotoxicity ([2]; ten-cycle, 1 hr infusion, 2010): >10/20
NOEL for peripheral neurotoxicity ([2]; ten-cycle, 1 hr infusion, 2010): <1 mg/kg/day
HNLD as single dose [2]: 2.5 mg/kg
highest non-lethal doses, times lower with cabazitaxel than with docetaxel [8]: 3- to 4 times
IC50 (microtubules): 100 to 250 nM
volume of distribution at steady state ([9]; healthy mice, single IV administration): 2.5 to 3.7 L/kg
Plasma clearance ([9]; normal mice, single IV infusion): 0.9 to 1.1 L/h/kg
terminal half-life ([9]; normal mice): 5.1 to 7.6 h
Plasma protein binding (plasma protein [10]): 99.3%
complete tumor regressions (CR) (Prostate DU 145): 100%
long-term tumor-free survival (TFS) (Prostate DU 145): 83%
antitumor activity (B16/TXT melanoma): demonstrated antitumor activity
volume of distribution at steady state ([11]; single IV administration): 22.7 L/kg
Plasma clearance ([11]; single IV infusion): 4.8 L/h/kg
terminal half-life [11]: 10 h
pathway D (cleavage of the parent drug), share of the dose ([12]; all species including humans): < 0.3%
excretion via the urinary route ([12]; mice, rats, and dogs): 1%–4
excretion, % of the administered dose ([12]; mice, rats, and dogs): 91%–95
radioactivity excreted in the feces, % of the administered dose ([12]; mice, rats, and dogs): 87%–91
administered dose excreted unchanged ([12]; mice, rats, dogs, and humans): less than 2.5%
mutations in the bacterial reverse mutation (Ames) test [13]: did not induce mutations
in vitro chromosome aberration test [14]: increased number of polyploid cells
cross-resistance [15]: no cross-resistance
Plasma protein binding (plasma protein [16]): 97.1%
volume of distribution at steady state ([17]; single IV administration): 3.3 to 14.5 L/kg
Plasma clearance ([17]; single IV infusion): 2.5 to 5.3 L/h/kg
terminal half-life [17]: 3.0 to 4.3 h
population half-life, initial phase ([18]; 170 patients): 4.4 min
population half-life, intermediate phase ([18]; 170 patients): 1.6 h
population half-life, terminal phase ([18]; 170 patients): 95.1 h
mean volume of distribution at steady state (population PK estimate) ([18]; median BSA 1.84 m^2): 2,640 L/m^2
plasma clearance (population PK estimate) ([18]; median BSA 1.84 m^2): 26.4 L/h/m^2
Plasma protein binding (plasma protein [19]): 91.4%
pathway C (t-butyl-hydroxylation on the lateral chain), share of the dose [20]: 41%
two O-demethylation pathways (A and B), share of the dose excreted [20]: 45%
Resistance factors [4]: 2–10
log cell kill (Breast UISO BCA-1): 4.4
antitumor activity (Breast Calc18/TXT): not active
Plasma protein binding (plasma protein [21]): 95.5%
NOEL for central neurotoxicity ([22]; 5-day, 1 min infusion): >7 mg/kg/day
NOEL for peripheral neurotoxicity ([22]; 5-day, 1 min infusion): 3 mg/kg/day
NOEL for central neurotoxicity ([22]; five-cycle, 1 hr infusion): 10 mg/kg/day
NOEL for peripheral neurotoxicity ([22]; five-cycle, 1 hr infusion): 5 mg/kg/day
NOEL for central neurotoxicity ([22]; single-dose, 1 min infusion): 10 mg/kg/day
NOEL for peripheral neurotoxicity ([22]; single-dose, 1 min infusion): 10 mg/kg/day
NOEL for central neurotoxicity ([22]; single-dose, 1 hr infusion): 10 mg/kg/day
NOEL for central neurotoxicity ([22]; weekly, 1 min infusion): 5 mg/kg/day
NOEL for peripheral neurotoxicity ([22]; weekly, 1 min infusion): 5 mg/kg/day
HNLD as single dose [22]; 2013: 30 mg/kg
partial remissions (HID28; HID28, 20 mg/kg): four out of ten
percentage tumor volume change (treated/control mean tumor volume) (HID28; HID28, 20 mg/kg): 1.4%
brain penetration versus paclitaxel or docetaxel [23]: two- to threefold greater
effects in CNS, respiratory, gastrointestinal, renal, and cardiovascular systems [24]: no physiologically relevant effects
tumor growth inhibition and tumor regression versus equivalent doses of docetaxel [25]: significantly greater tumor growth inhibition and tumor regression
pathway C (t-butyl-hydroxylation on the lateral chain), share of the dose [5]: 21%
two O-demethylation pathways (A and B), share of the dose excreted [5]: 40%
HNLD as single dose [26]: 0.5 mg/kg
two O-demethylation pathways (A and B), share of the dose excreted [27]: 54%
uptake across the BBB, P-glycoprotein-deficient versus control mice (P-glycoprotein): threefold higher
antitumor activity (increase in life span) versus docetaxel [28]: enhanced antitumor activity compared with docetaxel
overall brain exposure relative to plasma [29, 31]: 3.7 fold
overall brain exposure relative to tumor tissue [29, 31]: 2.3 fold
time to maximum drug concentrations in tumor tissue ([29]; MA16/C-bearing mice, 40 mg/kg): ≤ 15 min
concentration within the tumor versus plasma ([29]; after 48 hours, MA16/C-bearing mice, 40 mg/kg): 40 fold
exposure in tumor compared with plasma ([29]; during the 48 hours following administration, 40 mg/kg): 1.6 times
exposure in tumor compared with plasma ([29]; entire experimental period (168 hours), 40 mg/kg): 2.9 times
volume of distribution at steady state ([29]; tumor-bearing mice, single IV administration, ref Sanofi, data on file, 2010): 8.8 L/kg
Plasma clearance ([29]; tumor-bearing mice, single IV infusion, ref Sanofi, data on file, 2010): 1.7 L/h/kg
terminal half-life ([29]; tumor-bearing mice, ref Sanofi, data on file, 2010): 26 h
lag time to 50% aggregation (reduction in lag time for tubulin assembly) (tubulin): 0 to 0.1 µmol/L
Plasma protein binding (plasma protein [30]): 91.9%
in vivo rat bone marrow micronucleus test (bone marrow): increase in micronuclei
